Test system: MPTP macaques
Assay: Dyskinesia studies in drug-naive MPTP primates (video dyskinesia analysis, L-Dopa and apomorphine challenge)
From the text: Neurotoxin MPTP was first administrated to 23 macaques until they developed severe Parkinsonism, these were then divided into experimental groups according to the following experiments: • 1. […] The animals were then observed from 2 up to 44 months. A subset of these primates were included for histology, microdialysis, electrophysiology, and metabolism studies. • 2. […] For the latter group, five MPTP macaques received daily oral L-Dopa for 12 weeks (MPTP-L-Dopa group, n=5). • 3. In the third experiment the potential of dyskinesia induction in MPTP macaques was studied by challenging them with a short acting D1/D2 dopaminergic agonist, apomorphine, then with an acute oral dose of L-Dopa. […] Animals were then challenged with L-Dopa and the number of dyskinesias was assessed with a specific software (The Observer®, Noldus)
All animals were assessed daily for their general clinical condition with special attention paid to the nutritional status. At the same time, the general neurological state of each macaque was assessed both pre- and post-lentiviral injections. To objectively quantify our neurological observations, animals were video-taped for 30 minutes before MPTP lesioning and at regular intervals following viral injections. The videos were then analyzed off-line by an examiner blinded to the experimental conditions. […]

CN1CCc2cccc3c2[C@H]1Cc1ccc(O)c(O)c1-3 [apomorphine] was tested, and the “locomotor activity after acute administration” value (MPTP-long term and MPTP-LacZ primates) was “levels similar to that of normal primates” and the “dyskinesia after acute administration” value (MPTP-long term and MPTP-Lenti-LacZ animals) was “debilitating choreiform and dystonic movements”.

From US20120295960A1, “TREATMENT REGIMEN FOR PARKINSON'S DISEASE” (priority 2011, published 2012)
